Assay results taken from patent US9113629B2, “4-amino-6-(4-substituted-phenyl)-picolinates and 6-amino-2-(4-substituted-phenyl)-pyrimidine-4-carboxylates and their use as herbicides” (DOW AGROSCIENCES LLC, priority 2013, dated 2015).
Read-outs that look alike come from different tables or passages of the source.

Tests used:
[1] = system: Key Broadleaf Weed and Crop Species; test: Post-emergent Test II herbicidal activity (Table 5); format: in vivo; details: post-emergence, 336 h, 14 days after application; for pest or weed control at 70 g/ha: application rate 70 g ai/ha; for pest or weed control at 140 g/ha: application rate 140 g ai/ha
How it was run: (§1)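 Injury was rated visually 14 d after treatment on a 0–100% scale against untreated controls. Test compounds, formulated with crop oil concentrate and surfactant and serially diluted down to 1/16× of the top rate, were applied by track sprayer at 187 L/ha onto first- to second-true-leaf seedlings.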

[2] = system: Key Grass and Sedge Weeds as well as Grass Crops; test: Post-emergent Test II herbicidal activity (Table 6); format: in vivo; details: post-emergence, 336 h; for pest or weed control at 70 g/ha: 70 g ai/ha; for pest or weed control at 140 g/ha: 140 g ai/ha
How it was run: as §1

[3] = ABUTH: velvetleaf (Abutilon theophrasti), read-out: Visual Growth Reduction (%) 14 Days After Application, ABUTH
[4] = AMARE: redroot pigweed (Amaranthus retroflexus), read-out: Visual Growth Reduction (%) 14 Days After Application, AMARE
[5] = BRSNN: oilseed-rape, canola (Brassica napus), read-out: Visual Growth Reduction (%) 14 Days After Application, BRSNN
[6] = CHEAL: lambsquarters (Chenopodium album), read-out: Visual Growth Reduction (%) 14 Days After Application, CHEAL
[7] = EPHHL: wild poinsettia (Euphorbia heterophylla), read-out: Visual Growth Reduction (%) 14 Days After Application, EPHHL
[8] = HELAN: sunflower (Helianthus annuus), read-out: Visual Growth Reduction (%) 14 Days After Application, HELAN
[9] = VIOTR: wild pansy (Viola tricolor), read-out: Visual Growth Reduction (%) 14 Days After Application, VIOTR
[10] = CYPES: yellow nutsedge (Cyperus esculentus), read-out: Visual Growth Reduction (%) 14 Days After Application, CYPES
[11] = DIGSA: crabgrass (Digitaria sanguinalis), read-out: Visual Growth Reduction (%) 14 Days After Application, DIGSA
[12] = ECHCG: barnyardgrass (Echinochloa crus-galli), read-out: Visual Growth Reduction (%) 14 Days After Application, ECHCG
[13] = ORYSA: rice (Oryza sativa), crop, read-out: Visual Growth Reduction (%) 14 Days After Application, ORYSA
[14] = SETFA: giant foxtail (Setaria faberi), read-out: Visual Growth Reduction (%) 14 Days After Application, SETFA
[15] = SORVU: grain sorghum (Sorghum vulgare), read-out: Visual Growth Reduction (%) 14 Days After Application, SORVU
[16] = TRZSS (wheat, Triticum aestivum), crop, read-out: Visual Growth Reduction (%) 14 Days After Application, TRZSS
[17] = ZEAMX: maize, corn (Zea mays), crop, read-out: Visual Growth Reduction (%) 14 Days After Application, ZEAMX

SMILES	pest or weed control at 70 g/ha [1, 3] [%]	pest or weed control at 140 g/ha [1, 3] [%]	pest or weed control at 70 g/ha [1, 4] [%]	pest or weed control at 140 g/ha [1, 4] [%]	pest or weed control at 70 g/ha [1, 5] [%]	pest or weed control at 140 g/ha [1, 5] [%]	pest or weed control at 70 g/ha [1, 6] [%]	pest or weed control at 140 g/ha [1, 6] [%]	pest or weed control at 70 g/ha [1, 7] [%]	pest or weed control at 140 g/ha [1, 7] [%]	pest or weed control at 70 g/ha [1, 8] [%]	pest or weed control at 140 g/ha [1, 8] [%]	pest or weed control at 70 g/ha [1, 9] [%]	pest or weed control at 140 g/ha [1, 9] [%]	pest or weed control at 70 g/ha [2, 10] [%]	pest or weed control at 140 g/ha [2, 10] [%]	pest or weed control at 70 g/ha [2, 11] [%]	pest or weed control at 140 g/ha [2, 11] [%]	pest or weed control at 70 g/ha [2, 12] [%]	pest or weed control at 140 g/ha [2, 12] [%]	also measured
COC(=O)c1nc(-c2ccc([N+](=O)[O-])cc2)c(F)c(N)c1Cl [Compound 95, methyl 4-amino-3-chloro-5-fluoro-6-(4-nitrophenyl)picolinate]	60 to 74	75 to 84	95 to 100	95 to 100	0 to 29	30 to 44	95 to 100	95 to 100	95 to 100	95 to 100	95 to 100	95 to 100	0 to 29	0 to 29	45 to 59	75 to 84	0 to 29	0 to 29	85 to 94	95 to 100	pest or weed control at 70 g/ha [2, 13]: 0 to 29%; pest or weed control at 140 g/ha [2, 13]: 0 to 29%; pest or weed control at 70 g/ha [2, 14]: 0 to 29%; pest or weed control at 140 g/ha [2, 14]: 0 to 29%; pest or weed control at 70 g/ha [2, 15]: 60 to 74%; pest or weed control at 140 g/ha [2, 15]: 60 to 74%; pest or weed control at 70 g/ha [2, 16]: 0 to 29%; pest or weed control at 140 g/ha [2, 16]: 0 to 29%; pest or weed control at 70 g/ha [2, 17]: 0 to 29%; pest or weed control at 140 g/ha [2, 17]: 0 to 29%
COC(=O)c1nc(-c2ccc(Br)cc2)nc(N)c1OC [Compound 97]	85 to 94	95 to 100	95 to 100	95 to 100	85 to 94	95 to 100	85 to 94	95 to 100	95 to 100	95 to 100	75 to 84	95 to 100	60 to 74	95 to 100	95 to 100	95 to 100	45 to 59	45 to 59	0 to 29	60 to 74	pest or weed control at 70 g/ha [2, 13]: 0 to 29%; pest or weed control at 140 g/ha [2, 13]: 0 to 29%; pest or weed control at 70 g/ha [2, 14]: 0 to 29%; pest or weed control at 140 g/ha [2, 14]: 30 to 44%; pest or weed control at 70 g/ha [2, 15]: 0 to 29%; pest or weed control at 140 g/ha [2, 15]: 30 to 44%; pest or weed control at 70 g/ha [2, 16]: 30 to 44%; pest or weed control at 140 g/ha [2, 16]: 60 to 74%; pest or weed control at 70 g/ha [2, 17]: 95 to 100%; pest or weed control at 140 g/ha [2, 17]: 95 to 100%
